The values that follow come from patent publication US20260250320A1, “LIPIDATED PEPTIDE INHIBITORS OF INTERLEUKIN-23 RECEPTOR” (Janssen Pharmaceutica NV, priority 2023, published 2026).

One experiment has as its target T1, IL-23R (Homo sapiens, UniProt Q5VWK5).
T1 construct: HEK293 cells containing IL-23R, IL-12Rβ1 and a firefly luciferase reporter gene driven by a STAT-inducible promoter (Promega); host or cells: HEK293
T1 sequence (Q5VWK5 24-629): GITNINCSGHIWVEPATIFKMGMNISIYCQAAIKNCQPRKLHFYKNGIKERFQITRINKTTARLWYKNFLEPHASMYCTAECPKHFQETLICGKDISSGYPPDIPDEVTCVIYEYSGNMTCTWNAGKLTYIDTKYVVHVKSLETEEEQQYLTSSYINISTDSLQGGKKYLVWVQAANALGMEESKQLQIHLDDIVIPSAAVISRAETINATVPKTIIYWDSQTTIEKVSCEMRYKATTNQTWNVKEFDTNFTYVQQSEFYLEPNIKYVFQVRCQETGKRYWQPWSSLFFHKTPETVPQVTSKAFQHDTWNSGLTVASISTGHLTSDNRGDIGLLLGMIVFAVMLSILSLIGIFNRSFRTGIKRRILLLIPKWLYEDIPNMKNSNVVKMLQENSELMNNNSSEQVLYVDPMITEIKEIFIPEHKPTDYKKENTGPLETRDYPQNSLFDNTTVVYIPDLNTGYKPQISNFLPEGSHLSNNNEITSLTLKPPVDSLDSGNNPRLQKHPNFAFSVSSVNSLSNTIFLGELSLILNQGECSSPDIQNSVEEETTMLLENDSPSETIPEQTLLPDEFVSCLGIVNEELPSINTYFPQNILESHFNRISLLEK
Briefly: IL23R Reporter Assay. Conditions: HEK293 cells containing IL-23R, IL-12Rβ1 and STAT-inducible firefly luciferase reporter; 10 ng/mL IL-23 (EC90); 5 h. In kind it is cell-based. The essentials: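 IC50 values were fitted with a 4-parameter Hill equation to luciferase signal, scaled between IL-23-only wells (0% inhibition) and 30 μM reference inhibitor (100%). The readout was a STAT-inducible reporter in IL-23R/IL-12Rβ1 HEK293 cells, stimulated with added 10 ng/mL IL-23 (EC90) for 5 h at 37° C and developed with BioGlo.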
In general terms: In a reporter assay the amount or activity of a reporter protein is the signal.

For experiment [1], the system named is IL-23-stimulated phosphorylated STAT3 in peripheral blood mononuclear cells (PBMCs). Briefly: PBMC pSTAT3 Assay. The format is cell-based. To be noted: PBMCs from healthy donors; 30 min preincubation with peptide; IL-23 5 ng/mL for 30 min; phospho-STAT3 by MSD. Summed up: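 Phospho-STAT3 quantified by Meso Scale assay in lysates of PBMCs exposed to IL-23 (5 ng/mL, 30 min, 37 °C) after 30 min peptide pretreatment. Cells were cryopreserved donor PBMCs activated 4 days with anti-CD3 plus IL-1β (100 ng/mL) and starved ~4 h; IC50 reported.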

Molecules are shown by their SMILES. Where a SMILES comes first, the peptide text is derived from it. Bridges are numbered along the chain shown (N, C = ends). [ ]: non-standard residue; d: D form. The star is where a group is joined. ξ: configuration not given here. X33 = C[N+](C)(CCNC(=O)CCOCCOCCOCCOCCOCCOCCOCCOCCOCCOCCOCCOCCNC(=O)CC[C@H](CC(=O)CCCCCCCCCCCCCCCCC(=O)O)C(=O)O)CC(=O)*; X30 = C[N+](C)(CCCC(=O)CCOCCOCCOCCOCCOCCOCCNC(=O)CC[C@H](NC(=O)CCCCCCCCCCCCCCCCC(=O)O)C(=O)O)CC(=O)*; Me3N+(CH2)2O(CH2)2O(CH2)2CO = C[N+](C)(C)CCOCCOCCC(=O)*; Trp(7-Me) = Cc1cccc2c(C[C@H](N)C(=O)O)c[nH]c12; 2Nal = N[C@@H](Cc1ccc2ccccc2c1)C(=O)O; AEF = NCCOc1ccc(C[C@H](N)C(=O)O)cc1; Lys(Me) = CNCCCC[C@H](N)C(=O)O; Pen = CC(C)(S)[C@H](N)C(=O)O; ξ3Pal = NC(Cc1cccnc1)C(=O)O; Ac6c = NC1(C(=O)O)CCCCC1; Abu = CC[C@H](N)C(=O)O; X31 = C=C(CN(C)*)N(C)C; Sar = CNCC(=O)O

The term IC50 denotes the concentration that inhibits the measured activity by half. Read a low IC50 as higher potency. As to `CC(=O)N(C)CCCC[C@H](CC(=O)C1(NC(=O)[C@H](Cc2ccc3ccccc3c2)NC(=O)[C@H](Cc2ccc(OCCNC(=O)C[N+](C)(C)CCNC(=O)CCOCCOCCOCCOCCOCCOCCOCCOCCOCCOCCOCCOCCNC(=O)CC[C@H](NC(=O)CCCCCCCCCCCCCCCCCCC(=O)O)C(=O)O)cc2)NC(=O)[C@H]2NC(=O)[C@H](CCCCN(C)C(C)=O)NC(=O)[C@H](Cc3c[nH]c4c(C)cccc34)NC(=O)[C@H]([C@@H](C)O)NC(=O)[C@H](CC(=O)N(C)C)NC(=O)[C@@H](NC(=O)CCOCCOCC[N+](C)(C)C)C(C)(C)SSC2(C)C)CCCCC1)C(=O)C[C@@H](CC(N)=O)C(=O)C[C@@H](Cc1cccnc1)C(=O)N(C)CC(=O)N(C)C` [compound 139, cPEG3aCO-Pen(3)-N(N(Me)2)-T-7MeW-K(NMeAc)-Pen(3)-AEF(SP6PEG12gEC20OH)-2Nal-THP-K(NMeAc)-N-3Pya-Sar-CON(Me)2], the IC50 against IL-23R is below 50 nM; in experiment [1], below 0.5 nM.
Take `CC(=O)N(C)CCCC[C@@H]1NC(=O)[C@H](CC2=CCc3c(C)cccc32)NC(=O)[C@H]([C@@H](C)O)NC(=O)[C@H](CC(=O)N(C)C)NC(=O)[C@@H](NC(=O)CCOCCOCC[N+](C)(C)C)C(C)(C)SSC(C)(C)C(CN[C@@H](Cc2ccc(OCCNC(=O)C[N+](C)(C)CCNC(=O)CCOCCOCCOCCOCCOCCOCCNC(=O)CC[C@H](CC(=O)CCCCCCCCCCCCCCCCCCC(=O)O)C(=O)O)cc2)C(=O)N[C@@H](Cc2ccc3ccccc3c2)C(=O)NC2(C(=O)N[C@@H](CCCCN(C)C(C)=O)C(=O)N[C@@H](CC(N)=O)C(=O)N[C@@H](Cc3cccnc3)C(C)N(C)CC(=O)N(C)C)CCOCC2)NC1=O` (stereo partly drawn) [compound 140, cPEG3aCO-Pen(3)-N(N(Me)2)-T-7MeW-K(NMeAc)-Pen(3)-AEF(SP6PEG6gEC20OH)-2Nal-THP-K(NMeAc)-N-3Pya-Sar-CON(Me)2]: the IC50 against IL-23R is 50 to 500 nM; in experiment [1], below 0.5 nM.
For `CC(=O)N(C)CCCC[C@@H]1NC(=O)[C@H](Cc2c[nH]c3c(C)cccc23)NC(=O)[C@H]([C@@H](C)O)NC(=O)[C@H](CC(=O)N(C)C)NC(=O)[C@@H](NC(=O)CCOCCOCC[N+](C)(C)C)C(C)(C)SSC(C)(C)[C@@H](C(=O)N[C@@H](Cc2ccc(OCCNC(=O)C[N+](C)(C)CCNC(=O)CCOCCOCCOCCOCCOCCOCCOCCOCCOCCOCCOCCOCCNC(=O)CC[C@H](CC(=O)CCCCCCCCCCCCCCCCC(=O)O)C(=O)O)cc2)C(=O)N[C@@H](Cc2ccc3ccccc3c2)C(=O)NC2(C(=O)N[C@@H](CCCCN(C)C(C)=O)C(=O)N[C@@H](CC(N)=O)C(=O)NC(Cc3cccnc3)C(=O)N(C)CC(=O)N(C)C)CCCCC2)NC1=O` (stereo partly drawn) [compound 141, cPEG3aCO-Pen(3)-N(N(Me)2)-T-7MeW-K(NMeAc)-Pen(3)-AEF(SP6PEG12gEC18OH)-2Nal-THP-K(NMeAc)-N-3Pya-Sar-CON(Me)2] ({Me3N+(CH2)2O(CH2)2O(CH2)2CO}-[Pen]D(NMe2)T[Trp(7-Me)][Lys(Me)](Ac)[Pen][AEF](X33)[2Nal][Ac6c][Lys(Me)](Ac)N[ξ3Pal][Sar]-NMe2; disulfide 1-6), in that order: below 50 nM and below 0.5 nM.
For `C=C(CN(C)C(=O)C(Cc1cccnc1)NC(=O)[C@H](CC(N)=O)NC(=O)[C@H](CCCCN(C)C(C)=O)NC(=O)C1(NC(=O)[C@H](Cc2ccc3ccccc3c2)NC(=O)[C@H](Cc2ccc(OCCNC(=O)C[N+](C)(C)CCCC(=O)CCOCCOCCOCCOCCOCCOCCNC(=O)CC[C@H](NC(=O)CCCCCCCCCCCCCCCCC(=O)O)C(=O)O)cc2)NC(=O)[C@H]2NC(=O)[C@H](CCCCN(C)C(C)=O)NC(=O)[C@H](Cc3c[nH]c4ccccc34)NC(=O)[C@H]([C@@H](C)O)NC(=O)[C@H](CC)NC(=O)[C@@H](N)C(C)(C)SSC2(C)C)CCCCC1)N(C)C` (stereo partly drawn) [compound 142, cPEG3aCO-Pen(3)-N(N(Me)2)-T-7MeW-K(NMeAc)-Pen(3)-AEF(SP6PEG6gEC18OH)-2Nal-THP-K(NMeAc)-N-3Pya-Sar-CON(Me)2] (H-[Pen][Abu]TW[Lys(Me)](Ac)[Pen][AEF](X30)[2Nal][Ac6c][Lys(Me)](Ac)N[ξ3Pal]-X31; disulfide 1-6), in that order: below 50 nM and below 0.5 nM.
